These results are taken from US20260376293A1, “METHODS FOR STUDYING GPR158 PHARMACOLOGY AND IDENTIFICATION OF ITS LIGANDS” (UNIVERSITY OF FLORIDA RESEARCH FOUNDATION, INCORPORATED, priority 2022, published 2026).

This assay has as its target T1, GPR158 (Homo sapiens, UniProt Q5T848).
T1 sequence (Q5T848 24-1215): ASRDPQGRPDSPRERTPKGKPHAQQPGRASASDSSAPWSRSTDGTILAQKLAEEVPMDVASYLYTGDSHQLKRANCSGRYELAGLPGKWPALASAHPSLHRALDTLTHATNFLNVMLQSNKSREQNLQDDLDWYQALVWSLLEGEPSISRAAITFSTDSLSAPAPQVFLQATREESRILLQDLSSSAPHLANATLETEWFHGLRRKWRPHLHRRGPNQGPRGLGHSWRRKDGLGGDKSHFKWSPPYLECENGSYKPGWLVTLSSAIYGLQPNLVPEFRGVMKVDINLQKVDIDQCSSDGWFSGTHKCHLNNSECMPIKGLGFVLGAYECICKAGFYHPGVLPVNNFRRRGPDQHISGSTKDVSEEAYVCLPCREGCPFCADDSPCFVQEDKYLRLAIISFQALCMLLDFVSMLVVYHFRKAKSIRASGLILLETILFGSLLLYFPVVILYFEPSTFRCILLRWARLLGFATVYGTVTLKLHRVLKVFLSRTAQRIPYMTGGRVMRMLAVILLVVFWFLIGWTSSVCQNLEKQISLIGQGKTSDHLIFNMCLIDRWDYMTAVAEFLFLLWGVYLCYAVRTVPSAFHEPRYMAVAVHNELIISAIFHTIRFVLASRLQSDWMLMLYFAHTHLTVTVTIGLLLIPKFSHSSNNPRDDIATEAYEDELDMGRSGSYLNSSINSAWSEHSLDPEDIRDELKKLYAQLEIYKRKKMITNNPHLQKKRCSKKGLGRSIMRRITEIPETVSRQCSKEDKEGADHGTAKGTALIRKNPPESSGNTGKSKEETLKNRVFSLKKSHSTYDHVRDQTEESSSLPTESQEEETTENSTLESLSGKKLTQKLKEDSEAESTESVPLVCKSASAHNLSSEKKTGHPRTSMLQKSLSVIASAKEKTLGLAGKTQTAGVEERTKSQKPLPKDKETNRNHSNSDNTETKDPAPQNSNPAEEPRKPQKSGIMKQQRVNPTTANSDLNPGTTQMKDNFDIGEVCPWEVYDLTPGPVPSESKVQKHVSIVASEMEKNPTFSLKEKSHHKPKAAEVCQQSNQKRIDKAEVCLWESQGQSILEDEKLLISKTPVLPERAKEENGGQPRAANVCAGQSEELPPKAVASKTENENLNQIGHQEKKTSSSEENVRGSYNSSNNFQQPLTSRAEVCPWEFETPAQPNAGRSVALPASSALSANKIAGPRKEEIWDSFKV
Put plainly: Radioligand competition binding assay vs ^3H-glycine. The arrangement: expressed in transfected cells; host or cells: HEK293FT. Particulars: for IC50: membranes from HEK293 cells expressing GPR158, 4 experiments, mean±s.e.m., read-out: IC50 (displacement of ^3H-glycine). As for the experimental part: FIG. 8. Radioligand competition binding assay comparing binding of glycine and taurine to GPR158 Membranes from HEK293 cells expressing GPR158 were first incubated with ^3H-Glycine setting binding to 100% and then exposed to increasing concentrations of cold glycine (open circles) or cold taurine (circles with angled-line fill). Data shown are from 4 independent experiments, mean±s.e.m.
Next, the inventors performed radioligand binding assays examining binding of [^3H]-labeled glycine to HEK293 cells expressing GPR158 (FIG. 7A). […] The inventors have then isolated cellular membranes and conducted classical radioligand titration experiments (FIG. 9D). The inventors detected saturable [^3H]-glycine binding to membranes containing GPR158 is substantial excess over linear non-specific binding to membranes devoid of GPR158 (FIG. 9E). Scatchard analysis (FIG. 9F) estimated Kd of GPR158 for glycine to be ~3 μM. The inventors further performed binding competition experiments directly comparing the ability of glycine and taurine to displace [^3H]-labeled glycine bound to GPR158 (FIG. 8).
The functional data shown represent the average±SEM of 3-9 individual experiments each performed in triplicate or indicated in each figure and expressed as means±standard error means (s.e.m). For cAMP assays, cells transfected with empty vector were used as control and one-way ANOVA test was performed. For the GAP assay, cells with the same transfection conditions were compared on their treatment and two-way ANOVA test was performed. The non-linear regression curve was used to fit on the dose response curve giving the IC50 value. For the flow cytometry and radioligand binding assays cells transfected with empty vector were used as control and two-way ANOVA test was performed. For the radioligand competition assay, dissociation-One phase exponential decay was used to fit on data and give the Ki value. For the ITC dose response curve, the non-linear regression curve was used to fit on the curve. […] For the electrophysiology experiments changes was assessed in nonparametric t-test; Wilcoxon test. […]
For orientation: Displacement assays read how much labelled ligand stays bound in the presence of the test substance.

In the case of `NCC(=O)O` [glycine], the IC50 – broadly, the point on the concentration scale where inhibition reaches its midpoint – is approximately 3 µM.

For `NCCS(=O)(=O)O` [taurine, 2-aminoethanesulfonic acid], the IC50 was approximately 6 µM. In addition, the “affinity of taurine relative to glycine” value (competition binding IC50 comparison) was “two fold lower affinity”.
